Assay [1] concerns the target T1, Tyrosine-protein phosphatase non-receptor type 1 (Homo sapiens, UniProt P18031).
T1 sequence (P18031 whole entry): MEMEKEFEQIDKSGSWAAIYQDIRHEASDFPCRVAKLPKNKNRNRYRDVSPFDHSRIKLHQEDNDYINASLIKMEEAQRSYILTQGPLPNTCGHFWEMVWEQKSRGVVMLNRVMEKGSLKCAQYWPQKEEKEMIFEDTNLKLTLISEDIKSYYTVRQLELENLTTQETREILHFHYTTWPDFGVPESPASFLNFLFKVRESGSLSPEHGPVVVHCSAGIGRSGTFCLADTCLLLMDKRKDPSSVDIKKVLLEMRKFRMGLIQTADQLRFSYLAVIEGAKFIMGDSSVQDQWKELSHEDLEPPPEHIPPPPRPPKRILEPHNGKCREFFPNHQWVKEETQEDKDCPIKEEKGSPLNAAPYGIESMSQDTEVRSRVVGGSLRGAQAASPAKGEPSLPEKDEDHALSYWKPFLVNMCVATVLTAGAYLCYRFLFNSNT
The assay is described as follows: Inhibition of recombinant human PTP1B using pNPP as substrate incubated for 10 mins prior to substrate addition measured after 30 mins by microplate reader analysis.

Assay [2] in a line: Cytotoxicity against human HuH7 cells assessed as cell viability after 72 hrs by WST-1 assay. In kind it is cell-based. As to conditions: Huh-7, 72 h.
The nature of assay [3]: Cytotoxicity against human EJ1 cells assessed as cell viability after 72 hrs by WST-1 assay. It is filed as cell-based. As to conditions: EJ1, 72 h.
Assay [4] addresses T2, Tyrosine-protein phosphatase non-receptor type 1 (Homo sapiens) (UniProt P18031).
T2 sequence (whole entry): T1 sequence (P18031 whole entry)
Description: Inhibition of PTP1B in human Huh7 cells assessed as increase in phosphorylated Akt level at 20 uM after 2 hrs by Western blot analysis. It is filed as cell-based. As to conditions: Huh-7.

The target in assay [5] is T2, Tyrosine-protein phosphatase non-receptor type 1 (Homo sapiens). Description: Inhibition of PTP1B in human Huh7 cells assessed as increase in phosphorylated Akt level at 50 uM after 2 hrs by Western blot analysis. It is filed as cell-based. As to conditions: Huh-7. Background: In western blotting, separated proteins are transferred to a membrane and probed.
Assay [6] shares this target. Description: Inhibition of PTP1B in human Huh7 cells assessed as increase in insulin-stimulated phosphorylated Akt level preincubated for 2 hrs followed by insulin stimulation for 5 mins by Western blot analysis. In kind it is cell-based. As to conditions: Huh-7.
Assay [7] has the same target. Description: Inhibition of PTP1B in human Huh7 cells assessed as increase in insulin-stimulated phosphorylated Akt level at 20 uM preincubated for 2 hrs followed by insulin stimulation for 5 mins by Western blot analysis. As to conditions: Huh-7. It is filed as cell-based.
The target is the same in assay [8]. Description: Inhibition of PTP1B in human Huh7 cells assessed as increase in insulin-stimulated phosphorylated Akt level at 50 uM preincubated for 2 hrs followed by insulin stimulation for 5 mins by Western blot analysis. In kind it is cell-based. As to conditions: Huh-7.
Assay [9] shares this target. The assay is described as follows: Inhibition of recombinant human PTP1B using pNPP as substrate at 24 uM incubated for 10 mins prior to substrate addition measured after 30 mins by microplate reader analysis.
Assay [10] shares this target. Description: Inhibition of recombinant human PTP1B using pNPP as substrate at 36 uM incubated for 10 mins prior to substrate addition measured after 30 mins by microplate reader analysis.

From ChEMBL document CHEMBL3745610, “A dimeric urea of the bisabolene sesquiterpene from the Okinawan marine sponge Axinyssa sp. inhibits protein tyrosine phosphatase 1B activity in Huh-7 human hepatoma cells” (Bioorg Med Chem Lett, 2016) come the findings set out here.

Calls of active or inactive are those of the source. The rule behind the calls is not given here.

Usually IC50 stands for the concentration that inhibits the measured activity by half. The inhibition is how much of the control response was suppressed. On to `CC(C)=CCC[C@](C)(NC(=O)N[C@@](C)(CCC=C(C)C)[C@H]1CC=C(C)CC1)[C@H]1CC=C(C)CC1`, for which the IC50 in assay [1] was 1.9 µM; in [2] it was greater than 50 µM; in [3], greater than 50 µM. Further, the inhibition result in assay [4] and in assay [5] was “inactive” throughout. The inhibition entry in assay [6] was “Dose-dependent effect”.
For `COc1cccc2c1C(=O)c1c(O)c3c(c(O)c1C2=O)C[C@@](O)(C(=O)CO)C[C@@H]3O[C@H]1C[C@H](N)[C@H](O)[C@H](C)O1` [DOXORUBICIN], in assay [3], the IC50 worked out at 0.023 µM.
For `CC(C)=CCC[C@](C)(N)[C@H]1CC=C(C)CC1`, the figures for the IC50 in assay [1], in assay [2] and in [3] were greater than 45 µM, greater than 50 µM and greater than 50 µM, respectively. Moreover, the inhibition entry in assay [7], in assay [4], in assay [5] and in assay [8] was “inactive” in each case.
Regarding `C=C(C)[C@@H](C)/C=C/[C@@H](C)[C@H]1CC[C@@H]2[C@]1(C)CC[C@H]1[C@]23C=C[C@]2(C[C@@H](O)CC[C@]12C)OO3`, the inhibition in assay [9] was 50%. For the same compound, the IC50 in [2] came to 26 µM; in assay [3], 21 µM.
As for `CC(C)[C@@H]1CC[C@](C)(N=C=S)[C@@H]2CC[C@@](C)(O)C=C12` [AXINISOTHIOCYANATE J], the inhibition in assay [10] is 50%. The IC50 in assay [2] and in assay [3] was greater than 50 µM throughout.
With `CC1=C[C@H]2[C@@H](CC1)[C@@](C)(N=C=S)CC[C@H]2C(C)C`, the IC50 in assay [1] is 17 µM; in [2], greater than 50 µM; in assay [3], greater than 50 µM.
